Test results as given in ChEMBL document CHEMBL1201862, “PubChem BioAssay data set” (2004).
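Cells were grown in 96-well plates and exposed to each compound for 48 hours at five concentrations; endpoints were interpolated linearly between bracketing concentrations, or set to the highest concentration if not reached. GI50: concentration for 50% inhibition of growth.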 Active and inactive are the calls of the source. No stated cut-off is given here; in the data, active = GI50 up to about 1.1 µM and inactive = higher.

How the values were obtained:
Experiment in all cases: DTP human tumour cell line panel, 48 h
HCT-116 = tested on: HCT-116
K562 = tested on: K562
KM12 = tested on: KM12
LOX IMVI = tested on: LOX IMVI
MOLT-4 = tested on: MOLT-4
Malme-3M = tested on: Malme-3M
NCI-H460 = tested on: NCI-H460
NCI-H522 = tested on: NCI-H522
OVCAR-3 = tested on: OVCAR-3
OVCAR-5 = tested on: OVCAR-5
SK-MEL-2 = tested on: SK-MEL-2
SK-OV-3 = tested on: SK-OV-3
SW-620 = tested on: SW-620
UACC-257 = tested on: UACC-257
UO-31 = tested on: UO-31
HL-60 = tested on: HL-60
NCI-H226 = tested on: NCI-H226

Compound	GI50 (HCT-116)	GI50 (K562)	GI50 (KM12)	GI50 (LOX IMVI)	GI50 (MOLT-4)	GI50 (Malme-3M)	GI50 (NCI-H460)	GI50 (NCI-H522)	GI50 (OVCAR-3)	GI50 (OVCAR-5)	GI50 (SK-MEL-2)	GI50 (SK-OV-3)	GI50 (SW-620)	GI50 (UACC-257)	GI50 (UO-31)	GI50 (HL-60)	GI50 (NCI-H226)
CC(=O)CCC1(c2ccccc2)OC(=O)C(C#N)=C1c1ccccc1 (stereo unspecified)	47.6 µM (inactive)	50.6 µM (inactive)	> 100 µM (inactive)	> 100 µM (inactive)	33.7 µM (inactive)	> 100 µM (inactive)	> 100 µM (inactive)	1.53 µM (inactive)	86.3 µM (inactive)	> 100 µM (inactive)	> 100 µM (inactive)	> 100 µM (inactive)	> 100 µM (inactive)	> 100 µM (inactive)	29.2 µM (inactive)	–	–
COc1c(C)cc2c(c1O)C1C3[C@H]4SC[C@@]5(NCCC6=C5NC5C=CC=CC65)C(=O)OCC(c5c6c(c(C)c(OC(C)=O)c54)OCO6)N3[C@@H](O)C(C2)N1C (stereo partly specified)	< 0.01 µM (active)	< 0.01 µM (active)	–	< 0.01 µM (active)	< 0.01 µM (active)	< 0.01 µM (active)	< 0.01 µM (active)	–	< 0.01 µM (active)	–	< 0.01 µM (active)	–	< 0.01 µM (active)	< 0.01 µM (active)	< 0.01 µM (active)	< 0.01 µM (active)	0.0112 µM (active)
NC1=NS(=O)(=O)Nc2nc(-c3ccc([N+](=O)[O-])cc3)[nH]c21	> 100 µM (inactive)	> 100 µM (inactive)	> 100 µM (inactive)	> 100 µM (inactive)	> 100 µM (inactive)	> 100 µM (inactive)	> 100 µM (inactive)	> 100 µM (inactive)	> 100 µM (inactive)	> 100 µM (inactive)	> 100 µM (inactive)	> 100 µM (inactive)	> 100 µM (inactive)	–	> 100 µM (inactive)	> 100 µM (inactive)	–
NC(CSSCC(N)Cc1ccccc1)Cc1ccccc1 (stereo unspecified)	35.2 µM (inactive)	33.4 µM (inactive)	30.2 µM (inactive)	29.7 µM (inactive)	30.1 µM (inactive)	57.3 µM (inactive)	40.8 µM (inactive)	15.7 µM (inactive)	33 µM (inactive)	44.3 µM (inactive)	36.8 µM (inactive)	85.7 µM (inactive)	31.6 µM (inactive)	47.8 µM (inactive)	> 100 µM (inactive)	32.7 µM (inactive)	–
Cc1cc(Br)cc(C)c1NC(=O)C(=O)C(C(=O)c1ccncc1)C1OC(=O)c2ccccc21 (stereo unspecified)	> 100 µM (inactive)	> 100 µM (inactive)	> 100 µM (inactive)	> 100 µM (inactive)	> 100 µM (inactive)	> 100 µM (inactive)	> 100 µM (inactive)	> 100 µM (inactive)	> 100 µM (inactive)	> 100 µM (inactive)	–	> 100 µM (inactive)	> 100 µM (inactive)	> 100 µM (inactive)	> 100 µM (inactive)	> 100 µM (inactive)	> 100 µM (inactive)
CCOC1=NC(=O)CC(c2ccccc2)S1 (stereo unspecified)	> 100 µM (inactive)	> 100 µM (inactive)	> 100 µM (inactive)	> 100 µM (inactive)	> 100 µM (inactive)	> 100 µM (inactive)	> 100 µM (inactive)	–	> 100 µM (inactive)	> 100 µM (inactive)	> 100 µM (inactive)	–	> 100 µM (inactive)	> 100 µM (inactive)	> 100 µM (inactive)	> 100 µM (inactive)	27.8 µM (inactive)
C[C@@H](NC1CCC[C@@H]1O)c1ccccc1 (stereo partly specified)	> 100 µM (inactive)	> 100 µM (inactive)	> 100 µM (inactive)	> 100 µM (inactive)	> 100 µM (inactive)	> 100 µM (inactive)	> 100 µM (inactive)	–	> 100 µM (inactive)	> 100 µM (inactive)	> 100 µM (inactive)	> 100 µM (inactive)	> 100 µM (inactive)	> 100 µM (inactive)	> 100 µM (inactive)	> 100 µM (inactive)	> 100 µM (inactive)
CCCCCCCCCC(=O)NC(Cc1ccc(O)cc1)C(=O)NCCCNCCCCNCCCNC(=O)[C@@H](N)CCCN=C(N)N (stereo partly specified)	> 100 µM (inactive)	29.9 µM (inactive)	20.9 µM (inactive)	84.1 µM (inactive)	> 100 µM (inactive)	20.4 µM (inactive)	15.5 µM (inactive)	28.8 µM (inactive)	> 100 µM (inactive)	–	–	36.6 µM (inactive)	> 100 µM (inactive)	44.5 µM (inactive)	31.9 µM (inactive)	16.2 µM (inactive)	61.2 µM (inactive)
CSc1c([S+](C)[O-])[nH]c2cc(Br)cc(Br)c12 (stereo unspecified)	17.6 µM (inactive)	24.2 µM (inactive)	24.6 µM (inactive)	16.2 µM (inactive)	18.1 µM (inactive)	24.9 µM (inactive)	16.7 µM (inactive)	23.3 µM (inactive)	20.6 µM (inactive)	–	–	27.9 µM (inactive)	32.8 µM (inactive)	33.3 µM (inactive)	23.4 µM (inactive)	21.3 µM (inactive)	27.4 µM (inactive)
